Laboratory results as given in patent US20220081387A1, “METHODS FOR PREPARING AMMONIUM TETRATHIOMOLYBDATE” (Alexion Pharmaceuticals, Inc., priority 2019, published 2022).

Legend:
[1] = Long-term stability study of ATTM samples, determined by HPLC; format: physicochemical; conditions: after 6 months, by HPLC
Protocol: ATTM Samples 1 and 2 were prepared essentially according to procedure in Example 1 starting with 12 kg of ammonium heptamolybdate. The isolated product was packed and stored immediately. Specifically, the samples were packaged corresponding to the packaging of the bulk material under argon in transparent anti-static polyethylene plastic bags, 90 10 10, 110 mm×170 mm, and the bags containing the samples were sealed with a plastic tie, and then subsequently packed in welded aluminium bags along with a drying agent in-between the two bags. Additional samples were packaged with ambient atmosphere in transparent anti-static polyethylene plastic bags, 90 10 10, 110 mm×170 mm. The bags containing the samples were sealed with a plastic tie, and then subsequently packed in welded aluminium bags along with a drying agent in-between the two bags.

[2] = ATTM solubility in sample solution (HPLC), methanol, ethanol and purified water; format: physicochemical; conditions: ethanol, purified water
Protocol: The ATTM solubility was measured in sample solution (HPLC), methanol, ethanol and purified water.

[NH4+].[NH4+].[SH-].[SH-].[S]=[Mo]=[S] [ATTM, Ammonium tetrathiomolybdate]
degradation of ATTM on storage [1]: no significant degradation | ATTM solubility [2]: lowest in alcohols, particularly in ethanol, and higher in water
